Measured values from patent US20260130917A1, “ANTIVIRAL COMPOSITION FOR CORONAVIRUS OR INFLUENZA VIRUS, USING NATURAL PRODUCTS, AND USE THEREOF” (priority 2022, published 2026).

What was measured:
in vitro [1] = conditions: monkey
[2] = test system: SARS-CoV-2 (βCoV/KOR/KCDC03/2020); assay: in vitro; conditions: human
in vitro [3] = conditions: human
[4] = test system: SARS-CoV-2 (βCoV/KOR/KCDC03/2020); assay: microbe, parasite or virus in culture; conditions: Severe acute respiratory syndrome coronavirus 2, Vero
[5] = test system: SARS-CoV-2 (βCoV/KOR/KCDC03/2020); assay: microbe, parasite or virus in culture; conditions: Severe acute respiratory syndrome coronavirus 2, Calu-3
[6] = test system: SARS-CoV-2 (βCoV/KOR/KCDC03/2020); assay: in vitro; conditions: monkey

SMILES: CCOC(=O)c1c(C(C)(C)C)oc2ccc(OC(=O)c3ccc(OC)cc3)cc12 [MolPort-000-424-809, Ethyl 2-tert-butyl-5-(4-methoxybenzoyloxy)-1-benzofuran-3-carboxylate]
- CC50 (in vitro [1]): > 100 µM
- selectivity ratio [2]: 1.97
- CC50 (in vitro [3]): > 100 µM
- IC50 [4]: 31.2 µM
- IC50 [5]: 50.7 µM

SMILES: c1ccc(Oc2cccc(OCCCN3CCCCC3c3cccnc3)c2)cc1 (centres unmarked) [MolPort-000-829-850, 3-{1-[3-(3-phenoxyphenoxy)propyl]piperidin-2-yl}pyridine and oxalic acid]
- selectivity ratio [6]: 2.08
- CC50 (in vitro [1]): 32.4 µM
- IC50 [4]: 15.6 µM

SMILES: CCCCCCCC/C=C\CCCCCCCC(=O)O [MolPort-001-788-274, (9Z)-octadec-9-enoic acid]
- CC50 (in vitro [1]): > 100 µM
- IC50 [4]: 67.9 µM

SMILES: CCCCC/C=C\C/C=C\CCCCCCCC(=O)O [MolPort-001-788-459, (9Z,12Z)-octadeca-9,12-dienoic acid]
- CC50 (in vitro [1]): > 100 µM
- IC50 [4]: 37.6 µM

SMILES: CC(C)(C)c1cc(CCCOC(=O)CNc2ccccc2)cc(C(C)(C)C)c1O [MolPort-002-151-168, 3-(3,5-di-tert-butyl-4-hydroxyphenyl)propyl 2-(phenylamino)acetate]
- CC50 (in vitro [1]): > 100 µM
- selectivity ratio [2]: 1.65
- CC50 (in vitro [3]): > 100 µM
- IC50 [4]: 23.5 µM
- IC50 [5]: 60.7 µM

SMILES: CC(C)(C)c1cc(CCCOC(=O)CNC2CCCCC2)cc(C(C)(C)C)c1O [MolPort-002-152-403, 3-(3,5-di-tert-butyl-4-hydroxyphenyl)propyl 2-(cyclohexylamino)acetate]
- selectivity ratio [6]: 1.73
- CC50 (in vitro [1]): 56.2 µM
- IC50 [4]: 32.5 µM

SMILES: CCCCCCCCC1OCC(OC(=O)c2ccc(OC)cc2)CO1 (centres unmarked) [MolPort-002-515-990, 2-octyl-1,3-dioxan-5-yl 4-methoxybenzoate]
- CC50 (in vitro [1]): > 100 µM
- selectivity ratio [2]: 1.92
- CC50 (in vitro [3]): > 100 µM
- IC50 [4]: 24.6 µM
- IC50 [5]: 52.2 µM

SMILES: O=C(OC[C@@H]1CCCN2CCCC[C@H]12)c1ccc(CSCc2ccccc2)o1 [MolPort-002-520-573, [(1R,9aR)-octahydro-1H-quinolizin-1-yl]methyl 5-[(benzylsulfanyl)methyl]furan-2-carboxylate]
- selectivity ratio [6]: 2.04
- CC50 (in vitro [1]): 58 µM
- IC50 [4]: 28.5 µM

SMILES: CCCc1cc2c3c(c(=O)oc2cc1OC(=O)CNC(=O)OCc1ccccc1)CCC3 [MolPort-002-526-563, 4-oxo-8-propyl-1H,2H,3H,4H-cyclopenta[c]chromen-7-yl 2-{[(benzyloxy)carbonyl]amino}acetate]
- selectivity ratio [6]: 1.16
- CC50 (in vitro [1]): 33.4 µM
- IC50 [4]: 28.7 µM

SMILES: O=C(NCCc1ccccc1)c1cc2c([nH]c3ccccc32)c(CCc2ccccc2)n1 [MolPort-002-526-760, N,1-bis(2-phenylethyl)-9H-pyrido[3,4-b]indole-3-carboxamide]
- selectivity ratio [6]: 1.63
- CC50 (in vitro [1]): 42.2 µM
- IC50 [4]: 25.8 µM

SMILES: CCCCCCCc1ccc(C(=O)Oc2ccc(C(=O)O)cc2)cc1 [MolPort-003-709-991, 4-(4-heptylbenzoyloxy)benzoic acid]
- CC50 (in vitro [1]): > 100 µM
- IC50 [4]: 43.3 µM

SMILES: CCCCCCCOC(=O)c1ccc(OC(=O)c2cccnc2)cc1 [MolPort-003-711-757, 4-[(heptyloxy)carbonyl]phenyl pyridine-3-carboxylate]
- selectivity ratio [6]: 2.02
- CC50 (in vitro [1]): 49 µM
- IC50 [4]: 24.3 µM

SMILES: CCCCCCCc1ccc(C(=O)Oc2ccc(SC)cc2)cc1 [MolPort-003-713-147, 4-(methylsulfanyl)phenyl 4-heptylbenzoate]
- CC50 (in vitro [1]): > 100 µM
- IC50 [4]: 94.4 µM
